Laboratory results taken from patent publication US9376376B2, “Substitute diphenylamine compounds use thereof as antitumor agents” (SINOCHEM CORPORATION, priority 2012, dated 2016).

How the values were obtained:
lung cancer A549 cell = assay: In vitro cell inhibition assay (MTT method), A549; format: cell-based, human; conditions: 48 h incubation
Method: (§1) The human cancer cell lines used for this assay were lung cancer A549 and leukemia HL-60.
(§2) The A549 or HL-60 cells were picked up from cell incubator, after washed for twice using PBS, cells were digested by 0.25% trypsin, and then add medium to terminate the digestion. After cells were collected using centrifuge and re-suspended, count cells under inverted microscope and add medium to make a density was 5×10^4 cells/mL. After 100 μL aliquots were added to each well of 96-well microtiter plates, cells were cultured in 5% incubator for overnight at 37° C., then the different concentration compounds were added to each well. After incubation for 48 h, MTT solution was added to each well and plates were then incubated for 4 h. The MTT tetrazolium was reduced to formazan by living cells. Then the formazan crystals were dissolved though adding DMSO to each well. The absorbance was read at 570 nm with a microplate reader.

leukemia HL-60 cells = assay: In vitro cell inhibition assay (MTT method), HL-60; format: cell-based, human; conditions: 48 h
Method: as §1, §2

| Structure (SMILES) | Proliferation inhibitory effect of the compounds on A549 cell (% of Control) (lung cancer A549 cell; 0.01 μM) | Proliferation inhibitory effect of the compounds on A549 cell (% of Control) (lung cancer A549 cell; 0.1 μM) | Proliferation inhibitory effect of the compounds on A549 cell (% of Control) (lung cancer A549 cell; 1 μM) | Proliferation inhibitory effect of the compounds on A549 cell (% of Control) (lung cancer A549 cell; 10 μM) | Proliferation inhibitory effect of the compounds on A549 cell (% of Control) (lung cancer A549 cell; 100 μM) | Proliferation inhibitory effect of the compounds on HL-60 cells (% of Control) (leukemia HL-60 cells; concentration 0.01 μM) | Proliferation inhibitory effect of the compounds on HL-60 cells (% of Control) (leukemia HL-60 cells; concentration 0.1 μM) | Proliferation inhibitory effect of the compounds on HL-60 cells (% of Control) (leukemia HL-60 cells; concentration 1 μM) | Proliferation inhibitory effect of the compounds on HL-60 cells (% of Control) (leukemia HL-60 cells; concentration 10 μM) | Proliferation inhibitory effect of the compounds on HL-60 cells (% of Control) (leukemia HL-60 cells; concentration 100 μM) |
| --- | --- | --- | --- | --- | --- | --- | --- | --- | --- | --- |
| Cc1cc([N+](=O)[O-])cc([N+](=O)[O-])c1Nc1c(Cl)cc(C#N)cc1Cl [Compound 30-104] | 2.4 % of Control | 1.1 % of Control | −0.1 % of Control | 78.4 % of Control | 91.8 % of Control | 21.8 % of Control | 31.6 % of Control | 65.3 % of Control | 88.0 % of Control | 93.3 % of Control |
| N#Cc1ccc(Nc2c(Cl)c(Cl)c(C#N)c(Cl)c2C#N)cc1 [Compound 6-23] | −0.8 % of Control | −1.8 % of Control | 2.5 % of Control | 93.7 % of Control | 93.8 % of Control | 2.3 % of Control | 10.8 % of Control | 23.1 % of Control | 93.2 % of Control | 90.6 % of Control |
| Cc1cc([N+](=O)[O-])cc([N+](=O)[O-])c1Nc1c(Cl)cc(C(F)(F)F)cc1Cl [Compounds 30-101] | – | – | – | – | – | −6.4 % of Control | −14.2 % of Control | −0.3 % of Control | 57.3 % of Control | 80.7 % of Control |
| N#Cc1c(Cl)c(Cl)c(Nc2c(Cl)cc([N+](=O)[O-])cc2Br)c(C#N)c1Cl [Compound 6-113] | 9.2 % of Control | 2.9 % of Control | 2.6 % of Control | 75.6 % of Control | 93.7 % of Control | −3.8 % of Control | 8.8 % of Control | 9.3 % of Control | 85.4 % of Control | 93.1 % of Control |
| Cc1cc([N+](=O)[O-])cc([N+](=O)[O-])c1Nc1c(Cl)cc(Cl)cc1C#N [Compound 30-120] | −1.5 % of Control | −0.9 % of Control | −0.7 % of Control | 84.0 % of Control | 92.0 % of Control | 23.6 % of Control | 39.2 % of Control | 70.6 % of Control | 95.9 % of Control | 95.7 % of Control |
| N#Cc1cc(Cl)c(Nc2c(Cl)c(Cl)c(C#N)c(Cl)c2C#N)c(Cl)c1 [Compound 6-98] | −2.5 % of Control | −0.7 % of Control | 11.7 % of Control | 90.1 % of Control | 93.2 % of Control | −2.5 % of Control | 10.1 % of Control | 30.0 % of Control | 91.7 % of Control | 95.1 % of Control |
| N#Cc1cc(Cl)cc(Cl)c1Nc1c(Cl)c(Cl)c(C#N)c(Cl)c1C#N [Compound 6-109] | – | – | – | – | – | 0.1 % of Control | 2.2 % of Control | 2.9 % of Control | 52.4 % of Control | 94.4 % of Control |
| Cc1c(Cl)c([N+](=O)[O-])cc([N+](=O)[O-])c1Nc1c(Cl)cc(C#N)cc1Cl [Compounds 22-104] | – | – | – | – | – | 4.1 % of Control | −7.3 % of Control | −2.1 % of Control | 60.5 % of Control | 94.0 % of Control |
| Cc1c(Cl)c([N+](=O)[O-])cc([N+](=O)[O-])c1Nc1ccc(C(F)(F)F)cc1 [Compounds 22-24] | – | – | – | – | – | −22.4 % of Control | −16.7 % of Control | −9.3 % of Control | 82.4 % of Control | 94.3 % of Control |
| N#Cc1c(Cl)c(Cl)c(Nc2ccccc2Cl)c(C#N)c1Cl [Compound 6-3] | – | – | – | – | – | −7.1 % of Control | −6.3 % of Control | −2.1 % of Control | 72.2 % of Control | 94.5 % of Control |
| COC(=O)c1cc(Cl)c(Nc2c([N+](=O)[O-])cc([N+](=O)[O-])c(Cl)c2C)c(Cl)c1 [Compounds 22-107] | – | – | – | – | – | 2.8 % of Control | −9.3 % of Control | −7.0 % of Control | 65.4 % of Control | 94.4 % of Control |
| Cc1c(Cl)c([N+](=O)[O-])cc([N+](=O)[O-])c1Nc1c(Cl)cc(Cl)cc1Cl [Compounds 22-98] | – | – | – | – | – | −7.3 % of Control | 1.3 % of Control | 9.5 % of Control | 77.7 % of Control | 91.0 % of Control |
| Cc1c(Cl)c([N+](=O)[O-])cc([N+](=O)[O-])c1Nc1ccc(C#N)cc1Cl [Compounds 22-61] | – | – | – | – | – | 5.2 % of Control | 7.8 % of Control | 11.0 % of Control | 85.7 % of Control | 89.8 % of Control |
| N#Cc1ccccc1Nc1c(Cl)c(Cl)c(C#N)c(Cl)c1C#N [Compound 6-10] | – | – | – | – | – | 21.8 % of Control | 16.1 % of Control | 9.8 % of Control | 78.5 % of Control | 77.1 % of Control |
